In PubChem BioAssay AID1645867 (Buhrlage Lab, Dana-Farber Cancer Institute and Novartis …, 2021):
Active and inactive are the calls of the source. No rule for the calls is given here.

Biological target: Ubiquitin carboxyl-terminal hydrolase isozyme L1 (Homo sapiens) (UniProt P09936)
Test: UCH-L1 deubiquitylase inhibitors, biochemical concentration-response, hit retest (AID 1645867)
Conditions: recombinant UCHL1 deubiquitinase activity assay

Sequence of Ubiquitin carboxyl-terminal hydrolase isozyme L1 (Homo sapiens) (P09936 whole entry, looked up): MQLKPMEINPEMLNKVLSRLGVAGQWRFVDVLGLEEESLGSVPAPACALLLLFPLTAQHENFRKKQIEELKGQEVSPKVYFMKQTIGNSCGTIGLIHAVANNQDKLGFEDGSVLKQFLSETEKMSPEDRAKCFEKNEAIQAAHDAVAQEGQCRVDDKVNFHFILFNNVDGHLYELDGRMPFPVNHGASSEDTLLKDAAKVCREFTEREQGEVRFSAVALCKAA

| SMILES | IC50 |
| --- | --- |
| COc1cccc2cc(C(=O)Nc3nc(-c4ccncc4)cs3)oc12 | > 25 µM (inactive) |
| Cc1oncc1C(=O)N1CC[C@H]2CO[C@H](CN3CCOCC3)[C@H]2C1 | > 25 µM (inactive) |
| COc1cc(C2CC(=O)Nc3nc(-c4ccccc4)[nH]c(=O)c32)cc(OC)c1O (stereo not given) | > 25 µM (inactive) |
| Cc1noc(C)c1CN1CCn2c1nc(-c1ccccc1)cc2=O | > 25 µM (inactive) |
| O=C1CC(c2ccc(F)cc2)CC2=C1C(c1cccc([N+](=O)[O-])c1)Nc1ccccc1N2 (stereo not given) | > 25 µM (inactive) |

Next, values leading:

| IC50 | SMILES |
| --- | --- |
| > 25 µM (inactive) | Cn1cc(NC(=O)Nc2cccc(C(F)(F)F)c2)c2ccccc2c1=O |
| > 25 µM (inactive) | O=c1c2cc(-c3ccccc3)nn2ccn1Cc1noc(CN2CCCCC2)n1 |
| > 25 µM (inactive) | CC(C)(NC(=O)C1CCCCC1)c1nc2c(c(C(N)=O)n1)OCCO2 |
| > 25 µM (inactive) | CC[C@H](C)[C@H](NC(=O)[C@H]([C@@H](C)CC)N(C)C(C)=O)C(=O)N[C@H](C(=O)N[C@@H](CC(C)C)C(=O)C1(C)CO1)[C@@H](C)O (stereo not given in full) |
| > 25 µM (inactive) | CCCn1c(=O)c(-c2ccc(C(=O)NCc3ccc(OC)cc3)cc2)nc2cccnc21 |
